In the METLIN SMRT retention time set (Domingo-Almenara et al. 2019):

Experiment: gradient 5% acetonitrile 3 min, to 50% in 2 min, to 85% in 15 min, held 3 min, 100 µL/min
Settings: column: Zorbax Extend-C18 2.1 x 50 mm; eluents: water / acetonitrile, 0.1% formic acid
Summary of the method: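 Each retention time is based on an adduct peak selected computationally and verified by manual inspection. Measurements used HPLC–quadrupole time-of-flight mass spectrometry in positive and negative ionization mode on mixtures of ~100 pure standards. Chromatography ran on a Zorbax Extend-C18 column (2.1 × 50 mm, 1.8 μm) at 100 μL/min with water and acetonitrile, each containing 0.1% formic acid, and dead and dwell volumes of 40 μL and 900 μL.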
`O=C(NCc1cccs1)C1CCN(S(=O)(=O)c2cc(C(=O)N3CCOCC3)cs2)CC1` gave an RP-LC retention time of 803 s. In the case of `Cc1ccccc1NS(=O)(=O)c1cc2n(c1)CCCNC2=O`, the RP-LC retention time is reported as 646 s. `O=C(CCCCCN1CCN(c2ccccc2-c2ccccc2)CC1)NC1CCCc2ccccc21` (stereo not given) showed an RP-LC retention time of 926 s. In the case of `C=CCNC(=O)Cn1c2c(c(=O)n3nc(-c4ccc(C)cc4)nc13)CCC2`, the RP-LC retention time is reported as 720 s. Compound `CC(C)Cn1c(=O)c(-c2ccc(C(=O)NCc3cccnc3)cc2)nc2ccccc21` has an RP-LC retention time of 693 s. `COc1ccc(OC)c(CCNC(=O)c2c(N3CCCC3=O)c3cc(F)ccc3n2C)c1` gave an RP-LC retention time of 919 s. `CC1CCN(S(=O)(=O)c2ccc(-c3nnc(C(=O)N4CCOCC4)o3)cc2)CC1` gave an RP-LC retention time of 797 s. `CCn1c(=O)n(CC)c2cc(NC3=C(C(=O)Nc4ccccc4)S(=O)(=O)c4ccccc43)ccc21` showed an RP-LC retention time of 947 s. `COc1cccc(S(=O)(=O)N2CCC3(CC2)CC(OCC2CC2)CCO3)c1` (stereo not given) showed an RP-LC retention time of 1010 s. With `COc1ccccc1NC(=O)Cn1c(C)nc2onc(C)c2c1=O` the RP-LC retention time was 772 s. Work on `COc1cccc(S(=O)(=O)N2CCc3nc[nH]c3C2)c1` yielded an RP-LC retention time of 602 s. Compound `O=C(c1cnn(-c2ccccc2)n1)N1CCN(C(=O)C2CC2c2ccc(F)cc2)CC1` (stereo not given) has an RP-LC retention time of 898 s. `COc1ccc(NC(=O)C2CCN(S(=O)(=O)c3ccc4[nH]c5c(c4c3)CCCCC5)CC2)cc1` gave an RP-LC retention time of 1040 s. Compound `CCOC(=O)CCC(=O)Nc1ncc(C#N)s1` has an RP-LC retention time of 667 s. Compound `N#Cc1cccc(CN2CCC3(CCC3O)CC2)c1` (stereo not given) has an RP-LC retention time of 565 s. Compound `Nc1cc(C2CCN(C(=O)c3cccnc3)CC2)no1` has an RP-LC retention time of 554 s. For `CCc1nn2c(CNS(=O)(=O)c3ccc(F)c(C)c3)c(-c3ccccc3)nc2s1`, the RP-LC retention time was 974 s. `Cc1nc(-c2cc(S(=O)(=O)N3CCC(C(=O)Nc4cccc(C#N)c4)CC3)c(C)s2)no1` showed an RP-LC retention time of 949 s. `Cc1nc2ccccc2c(=O)n1Cc1noc(C2CC(=O)N(c3ccccc3)C2)n1` (stereo not given) gave an RP-LC retention time of 722 s. Compound `CS(=O)(=O)N1CC(C(=O)Nc2ccccc2-c2ccccc2)Oc2ccccc21` (stereo not given) has an RP-LC retention time of 1090 s. With `O=C(CSc1ccc(N2CCCC(C(=O)NC3CC3)C2)nn1)Nc1cccc(Br)c1` (stereo not given) the RP-LC retention time was 664 s. Work on `COc1nn(C)cc1C(=O)NCc1ccco1` yielded an RP-LC retention time of 599 s. For `Cn1c(=O)sc2cc(S(=O)(=O)N3CCC(C(=O)NCc4cccnc4)CC3)ccc21`, the RP-LC retention time was 603 s. Compound `O=C(Nc1ccc2c(c1)OCO2)C1CCN(S(=O)(=O)c2cc(C(=O)N3CCCC3)cs2)CC1` has an RP-LC retention time of 770 s. For `O=C(CCc1ccccc1)NC1CCN(c2cc(-c3ccccc3)[nH]n2)C1` (stereo not given), the RP-LC retention time was 643 s. Work on `COc1ccc(NC(=O)Cn2nc(C(=O)N3CCOCC3)c3ccccc32)cc1` yielded an RP-LC retention time of 712 s. With `CCOC(=O)c1c(C)oc2ncnc(Nc3ccc4c(c3)OCCO4)c12` the RP-LC retention time was 1120 s. For `COc1ccc(NC(=O)Cn2ccc3sccc3c2=O)cc1`, the RP-LC retention time was 706 s. For `CCOc1ccc2nc(NC(=O)C3CCCN3S(=O)(=O)c3cc(C(=O)OC)n(C)c3)sc2c1` (stereo not given), the RP-LC retention time was 976 s. Work on `Cc1cc(Br)ccc1NS(=O)(=O)c1cc(-c2nc(C)c(C)s2)cs1` yielded an RP-LC retention time of 1110 s. Work on `Cc1ccc(NS(=O)(=O)c2cc(-c3[nH]ncc3C(=O)N(C)C)oc2C)cc1` yielded an RP-LC retention time of 690 s. `CCN1C=C(C(=O)OCc2ccccc2F)C(C)=NS1(=O)=O` showed an RP-LC retention time of 895 s. Work on `O=S1(=O)C[C@H](N2CCN(c3ccccn3)CC2)[C@@H](S(=O)(=O)c2ccc(F)cc2)C1` yielded an RP-LC retention time of 1040 s. `CCn1cc(C)c(C(=O)O)c1CC(=O)NCc1ccco1` gave an RP-LC retention time of 702 s. For `CCc1nnc(-c2cc(C)n(CC(=O)Nc3cc(OC)cc(OC)c3)c2C)o1`, the RP-LC retention time was 807 s. Work on `Cc1cccc(-c2noc(Cn3ncn4nc(-c5cccs5)cc4c3=O)n2)c1` yielded an RP-LC retention time of 1100 s. For `O=C1Nc2cc(C(=O)N3CCN(C(=O)c4ccco4)CC3)ccc2N2CCCCC12` (stereo not given), the RP-LC retention time was 677 s. Work on `CC(C)CC(=O)Nc1ccc(N2CCOCC2)cc1C(=O)O` yielded an RP-LC retention time of 713 s. Work on `COc1ccc(C2C(C(=O)Nc3ccc4c(c3)OCO4)c3ccccc3C(=O)N2C)cc1` (stereo not given) yielded an RP-LC retention time of 835 s. Compound `CC1C(=O)NCCN1C(=O)CCSc1ccc(Cl)cc1` (stereo not given) has an RP-LC retention time of 674 s. In the case of `Cc1nn(-c2ccc(C(=O)NCc3ccco3)cc2)cc1NC(=O)C(C)C`, the RP-LC retention time is reported as 722 s. For `O=C(NCCc1nc2cccnc2n1-c1ccccc1)C1CCCCC1`, the RP-LC retention time was 730 s. In the case of `CCOC(=O)c1nc(N(C)c2ccc(F)cc2)c2ccccc2n1`, the RP-LC retention time is reported as 909 s. With `CSc1ncc2[nH]c(C(O)c3ccccc3)nc2n1` (stereo not given) the RP-LC retention time was 692 s. `CCCNC(=O)N1CCCC(c2nn[nH]n2)C1` (stereo not given) showed an RP-LC retention time of 590 s. `Cc1ccc(S(=O)(=O)N2CC(=O)N(Cc3ccccc3)C(C)(C(=O)NCc3ccccc3)C2)cc1` (stereo not given) showed an RP-LC retention time of 1010 s. For `O=C(NC1CC1)[C@@H]1C[C@H](Oc2cccnc2)CN1C(=O)c1cnccn1`, the RP-LC retention time was 526 s. In the case of `CC(C)Cn1cc(CCNC(=O)c2ccccc2)c2cccnc21`, the RP-LC retention time is reported as 770 s. In the case of `CCS(=O)(=O)c1ccc2c(c1)N(Cc1nc(-c3ccccc3OC)no1)C(=O)CO2`, the RP-LC retention time is reported as 810 s. Work on `Cc1nnc(CNC(=O)c2cc(-c3cccs3)[nH]n2)o1` yielded an RP-LC retention time of 582 s. `CCNc1cc(N2CCCC(CCC(=O)N3CCCN(c4ncccn4)CC3)C2)ncn1` (stereo not given) gave an RP-LC retention time of 608 s. `COc1ccc(Cl)cc1C(=O)N1CCN=C1SCc1cccnc1` gave an RP-LC retention time of 578 s. In the case of `Cn1cc(CC(=O)NCc2ccc(F)c(Cl)c2)c2cccnc21`, the RP-LC retention time is reported as 725 s. `Cn1nc(COc2ccccc2)c2c1CCN(C(=O)c1ccccn1)C2` showed an RP-LC retention time of 687 s. With `Cc1cc(C(=O)N(CCn2nc(C)cc2C)c2nc3c(C(C)C)cccc3s2)on1` the RP-LC retention time was 1200 s. `Cc1ccc(NS(=O)(=O)c2cc3n(c2)CCN(CC(C)C)C3=O)cc1` gave an RP-LC retention time of 794 s. Compound `Cc1cc(NC(=O)c2cc(Cl)ccc2Cl)n(C(C)C)n1` has an RP-LC retention time of 775 s. For `Cc1ccc(S(=O)(=O)N2CCC(CCNC(=O)NC3CCCCC3)CC2)cc1`, the RP-LC retention time was 905 s. Work on `Cc1ccc(-c2cn3c(CC(=O)Nc4ccc(F)cc4Cl)csc3n2)cc1C` yielded an RP-LC retention time of 911 s. In the case of `CCOC(=O)C(C)NC(=O)N1CCN(Cc2nc3cccnc3n2-c2ccc(CC)cc2)CC1` (stereo not given), the RP-LC retention time is reported as 659 s. `O=C(O)c1nnn(-c2ccc3c(c2)CCC3)c1-c1cccnc1` showed an RP-LC retention time of 711 s. In the case of `CCn1c(=O)c(N2CCCC(C(=O)N3CCN(c4ccc(Cl)cc4)CC3)C2)nc2ccccc21` (stereo not given), the RP-LC retention time is reported as 1230 s. With `CCn1cc(C(=O)NCc2ccccc2C)c2cccnc21` the RP-LC retention time was 809 s. `Cc1noc(C)c1CNC(=O)c1ccc(OC(F)(F)F)cc1` showed an RP-LC retention time of 825 s. `Cc1c(Cl)ccc2c(=O)c3c([nH]c12)CCN(CC(=O)Nc1ccc2c(c1)OCCO2)C3` gave an RP-LC retention time of 646 s. `Cc1cccc(CNC(=O)c2cc(C(C)C)n3nccc3n2)c1` gave an RP-LC retention time of 1310 s. For `CCCCNC(=O)C1CCCN(c2nnc(C)c3c(C)n(-c4ccccc4)nc23)C1` (stereo not given), the RP-LC retention time was 686 s. Work on `CCNc1cc(N2CCC(CCC(=O)Nc3ccc(OCC)cc3)CC2)ncn1` yielded an RP-LC retention time of 682 s. For `CCOC(=O)CC(=O)Nc1nc(C2COc3ccccc3O2)cs1` (stereo not given), the RP-LC retention time was 921 s. Compound `CN1CCN(C(=O)C2CC(=O)N(c3ccc4c(c3)CCN4C(=O)C3CC3)C2)CC1` (stereo not given) has an RP-LC retention time of 570 s. For `CC(C)Oc1ccc(-c2noc(CN3N=NC4C(=O)N(c5cccc(Cl)c5)C(=O)C43)n2)cc1` (stereo not given), the RP-LC retention time was 1040 s. Compound `COc1cc(C(=O)Nc2ccc(-c3cn4cccnc4n3)cc2)cc(OC)c1OC` has an RP-LC retention time of 634 s. Work on `N#CCc1nc(-c2cc3ccccc3o2)cs1` yielded an RP-LC retention time of 860 s. For `CCN1C(=O)c2cccnc2Sc2cc(NC(=O)COc3cccc(Cl)c3)ccc21`, the RP-LC retention time was 916 s. Compound `O=C(NC1(c2nc(-c3ccccn3)no2)CCCCC1)c1ccccc1` has an RP-LC retention time of 848 s. `O=C(CN1CCN(Cc2ccc(F)cc2)C1=O)NCCc1ccccn1` gave an RP-LC retention time of 552 s. For `Cc1ccc(Nc2c(-c3ccc(C)cc3)nc3cccc(C)n23)cc1`, the RP-LC retention time was 782 s. `CC[C@@H]1C(=O)N(C)c2cnc(Nc3ccc(C(=O)NC4CCN(C)CC4)cc3OC)nc2N1C1CCCC1` gave an RP-LC retention time of 624 s. Work on `Cc1cc(NC(=O)CN2CCc3ccccc3C2C(=O)N2CCCCC2)ccc1F` (stereo not given) yielded an RP-LC retention time of 964 s. In the case of `Cc1cc(NCc2ccccn2)n2ncnc2n1`, the RP-LC retention time is reported as 562 s. Work on `O=C(Cn1nc(N2CCOCC2)c2ccccc2c1=O)Nc1ccccc1` yielded an RP-LC retention time of 742 s. Work on `O=S(=O)(CCc1noc(-c2nccc3ccccc23)n1)c1ccccc1` yielded an RP-LC retention time of 890 s. Compound `Cc1cc(OCC(=O)N[C@H](C(=O)O)C(C)C)c2c3c(c(=O)oc2c1)CCCC3` has an RP-LC retention time of 837 s. With `COc1ccc(CCNC(=O)CN2C(=O)NC3(CCCCC3)C2=O)cc1OC` the RP-LC retention time was 691 s. `O=C(NCC1CC1)C1CC(=O)N(c2ccc3c(c2)CCN3C(=O)C2CCC2)C1` (stereo not given) gave an RP-LC retention time of 719 s. In the case of `O=C1Nc2ccccc2NC12CCOCC2`, the RP-LC retention time is reported as 631 s. Work on `CC(C)CCNC(=O)C1(C)Cn2nc(C(=O)NCc3ccc(N(C)C)cc3)cc2C(=O)N1C` (stereo not given) yielded an RP-LC retention time of 619 s. With `Cc1ccn2c(NC(=O)c3ccco3)c(-c3ccccc3)nc2c1` the RP-LC retention time was 622 s. `O=C1CC(c2cccs2)Cc2nc(N3CCN(c4ccccn4)CC3)ncc21` (stereo not given) gave an RP-LC retention time of 674 s. In the case of `COCCC1(NC(=O)C2CCOCC2)CCN(C(=O)C2CC=CC2)CC1`, the RP-LC retention time is reported as 632 s.
